Source: patent EP4352072B1, “SYNTHESIS OF A NOVEL GLUCOSE-CONJUGATED METHOTREXATE AND ITS APPLICATION FOR THE TREATMENT AND PREVENTION OF NEOPLASMS” (Uniwersytet Medyczny Im. Piastów Slaskich We Wroclawiu, priority 2021, dated 2022)
Like-named read-outs stand apart in the source and are kept apart here.

Tests used:
MCF-7 (breast) = test: MTT cytotoxicity test, MCF-7; format: cell-based; details: Homo sapiens, MCF7, incubation 72 hours, read-out: IC50 values (µM) for individual cell lines MCF-7 (breast)
Protocol: (§1) Cells were seeded in a 96-well plate at 5-10 x 10^3 cells per well. After 24 hours, the culture medium was decanted and 100 µL of fresh medium was added to the control wells, while the medium with test compounds dissolved in DMSO was added to the test wells. The plates were wrapped in foil and placed in an incubator. After 72 hours of incubation, the medium was decanted and 100 µL of a solution of yellow soluble 3-(4,5-dimethyl-2-thiazolyl)-2,5-diphenyl-2H-tetrazolium bromide (MTT) at a concentration of 0.5-1 mg/mL was added. After 4 hours of incubation, the MTT solution was decanted and 50 µL/well of DMSO was added. After 3 hours, the optical density of the dissolved formazan was analyzed colorimetrically in a BioTek plate reader. […] Since living cells reduce MTT to formazan, the optical density (OD) is highest in the control (C) wells which accounted for 100% of cell viability. Viablity in wells incubated with compound (COMP) was calculated using the formula: X = 100% × OD COMP/OD C [formula] The results reported are the mean value of triplicate cytotoxicity analysis. Cell viability studies using the MTT assay on cell lines of numerous cancers, including breast cancer, colorectal cancer, lung cancer, skin cancer, and bone sarcoma have shown that Glu-MTX is cytotoxic in vitro. […]

DLD-1 (large intestine) = test: MTT cytotoxicity test, DLD-1; format: cell-based; details: Homo sapiens, incubation 72 hours, read-out: IC50 values (µM) for individual cell lines DLD-1 (large intestine)
Protocol: as §1

MG-63 (bone sarcoma) = test: MTT cytotoxicity test, MG-63; format: cell-based; details: Homo sapiens, incubation 72 hours, read-out: IC50 values (µM) for individual cell lines MG-63 (bone sarcoma)
Protocol: as §1

[1] = test system: WI38 (healthy fibroblasts); test: MTT cytotoxicity test, WI38; format: cell-based; details: Homo sapiens, WI-38, incubation 72 hours, read-out: IC50 values (µM) for individual cell lines WI38 (healthy fibroblasts)
Protocol: as §1

[2] = test system: MCF-7 breast cancer tumor cells; test: MS analysis of intracellular accumulation, MCF-7; format: cell-based; details: human, 2 h, 10 µM
Protocol: (§2) Cells were seeded in a 6-well plate at 2.5 x 10^5 cells/well and 1 mL/well. When the cells reached 80% confluence, the culture medium was decanted and 1 mL per well of fresh medium to the control wells or 1 mL per well of the test medium with methotrexate at a concentration of 10 µM or a derivative of methotrexate at a concentration of 10 µM, respectively, was added. The plate was wrapped in foil and incubated for 2 hours in an incubator. After this time, the medium was decanted, and each well was washed with 2x1 mL of PBS at room temperature. Then, the plate was placed on ice and 500 µL of a 3:1 mixture of methanol and ultrapure water at -20 °C were applied to each well. The mixture was pipetted several times in each well and collected in a test tube. Then, the procedure was repeated and the prepared samples (each with a volume of 1 mL) were placed in a lowtemperature freezer at -80 °C. The next day, the samples were concentrated in a vacuum concentrator until the samples were completely dry. Prior to analysis, the solvent for MS analysis (Xevo G2 Q-TOF MS) was added to the sample. In figure 7 it can be seen that in case of MTX the surface area of MCF7 tumor cells grown with MTX is about 308 units, and when using a compound according to the invention (identified as 77_1 in Figure 7) it is 525, i.e. about 1.7 times less than in the case of a conjugate. […]

[3] = test system: A427 lung cancer tumor cells; test: MS analysis of intracellular accumulation, A427; format: cell-based; details: 10 µM, 2 hours incubation
Protocol: as §2

[4] = male, BALB/ccmdb, mouse, in vivo, iv
Protocol: The pharmacokinetic profile of the glucose-methotrexate derivative according to the invention (GMTX; chemical formula: C42H58N16O15) was examined in relation to the profile of the classical form of this drug (MTX) after a single intravenous administration into the tail vein. The solutions administered to the animals were prepared on the day of administration.
GMTX was administered to mice intravenously via the tail vein, in a single dose, in the form of solutions (with concentrations ensuring that the animals are dosed appropriately) prepared in 5% DMSO and saline in the 1:20 ratio, in a volume not exceeding 0.2 cm^3/mouse. […]
Mice were administered intravenously (i.v.) GMTX and MTX and blood was collected (to obtain plasma) at 4 time points after injection (1 h, 2 h, 4 h and 8 h), as well as in the so-called time 0 (blood sampling from animals that received neither MTX nor GMTX). […] Another 16 males were administered GMTX at a dose of 400 mg/kg body weight, constituting ½ the MTD of this compound (determined in our study with the code T425/001/2020), and the remaining 8 subjects were not administered either classic MTX nor its glycoconjugate (GMTX). […]
The results of MTX and GMTX concentrations in the plasma of mice were statistically analyzed using the Statistica 13 computer program. The results were expressed as the mean concentration (± standard deviation - SD) at individual time points. […]

[5] = administered intravenously, cited from earlier work
[6] = cited from earlier work

SMILES: CN(Cc1cnc2nc(N)nc(N)c2n1)c1ccc(C(=O)N[C@@H](CCC(=O)O)C(=O)O)cc1 [MTX, Methotrexate]
- IC50 (MCF-7 (breast)): 9.61 ± 0.12 µM
- IC50 (DLD-1 (large intestine)): 6.85 ± 0.21 µM
- IC50 (MG-63 (bone sarcoma)): 61 ± 0.76 µM
- IC50 [1]: 16.9 ± 1.94 µM
- surface area (MS analysis) [2]: about 308 units
- surface area of MTX, times less than in the case of a conjugate [2]: about 1.7 times
- surface area of MTX, times smaller compared to that of the conjugate [3]: 1.7 times
- eliminated from the systemic circulation (time) [4]: ≤ 4 h
- MTD ([5]; mice of the BALB/c strain, Moura et al. 2011): 94 mg/kg b.w.
- LD50 ([5]; mice): 65 mg/kg b.w.
- bioavailability ([6]; in high doses): 10-20%
- bioavailability ([6]; in low doses): almost complete
- plasma half-life ([6]; in vivo): 5 to 8 h
